One test has as its system YAP-TEAD interaction. Kind of test: SK-HEP-1 reporter assay (8xTEAD responsive elements driving NanoLuc luciferase). Format: cell-based. A digest of the protocol: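 SK-HEP-1 cells stably carrying 8×TEAD-driven NanoLuc treated in duplicate, 10-point dose from 30 μM final, 0.3% DMSO, 24 h at 37° C. Luminescence after NanoGlo lysis/substrate addition; IC50 calculated from dose response.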
(A reporter such as luciferase makes a cellular process visible.)

Another test concerns NCI-H226 cells. In words: Viability assay in NCI-H226 (Yap-dependent) cells, CyQuant. Format: cell-based, human. How it is done:
(§1) Viability Assay in NCI-H226 (Yap-Dependent) and SW620 Yap KO (Yap Independent) Cells
(§2) The ability of YAP-TEAD inhibitors to inhibit tumor cell growth was evaluated using two different cell lines: NCI-H226, which is a YAP dependent cell line, and SW620 cells, where YAP and TAZ were knocked out using CRISPR to generate a YAP independent cell line.
(§3) For the assay, cells were treated in duplicates with the test compounds in a 10-point dose, 1:3 dilution steps, with the top concentration starting at 30 μM (final concentration in assay). After a 96 hour incubation at 37° C., 95% rH, and 5% CO2, a cell-permeant DNA-binding dye that stains only healthy cells (CyQUANT®, Promega) was added to the cells, allowing the quantification of cell viability.
(§4) Cell Media: The NCI-H226 cells were cultured in the following media: RPMI 1640, +10% FBS, +1× GlutaMAX, +10 mM HEPES, +0.5% Pen/Strep. The SW620-KO cells were cultured in the following media: DMEM/F-12, +10% FBS, +1× GlutaMAX, +10 mM HEPES, +0.5% Pen/Strep.
(§5) Reagents: The reagents used are listed below:
(§6) Cell culture: The cells were examined using an inverted microscope to check for health, cell density, etc. To dissociate adherent cells, the monolayer of cells was washed once with pre-warmed PBS. After removing the PBS, 3 ml pre-warmed Accutase was added to a F75 flask, dispersed evenly and the flask was allowed to sit in incubator for ˜4-5 minutes.
(§7) When a single cell suspension was obtained, 7 ml of prewarmed growth media was added and resuspended with the cells. The cell suspension was transferred to a sterile 15 ml conical centrifuge tube, and spun for 5 min at 300×g, RT. The supernatant was discarded and the pellet was resuspended in 10 ml of pre-warmed growth media.
(§8) The total cell count was determined, and 20 μl of the desired cell number was added to each well of a 384 well plate using a Multidrop Combi. The plates were then incubated for 24 hours at 37° C., 95% rH, and 5% CO2.
(§9) Compound treatment: 24 hours after seeding, the cells were treated with compounds.
(§10) A 1:333 dilution of compounds, diluted in DMSO, was made to get a final concentration of 0.3% DMSO per well. To transfer the compounds to the assay plate, […] was shot from Labcyte low dead volume plates to the cell plates containing 20 μl media/well with the ECHO 555 liquid handling system.
(§11) After treatment, the cells were fed with 20 μl fresh pre-warmed assay media using a Multidrop combi.
(§12) The assay plates were then incubated for 96 h at 37° C., 95% rH, and 5% CO2.
(§13) 96 h after treatment 30 μl of CyQuant® reagent was added to the assay plates using a Multidrop combi in the dark. The plates were then incubated for 1 hour at 37° C., 95% rH and 5% CO2. Thereafter, the assay plates were removed from the incubator and allowed to equilibrate to RT for 30 min in the dark without lid. Finally, they were measured using an EnVision microplate reader with a FITC bottom read program.

For the next test, the system named is SW620 Yap KO cells. In words: Viability assay in SW620 Yap KO (Yap independent) cells, CyQuant. The settings on record: n.d. = value not detectable below threshold given in parentheses. Format: cell-based. How it is done:
as §1, §2, §3, §4, §5, §6, §7, §8, §9, §10, §11, §12, §13

Where [1] appears, read: Homo sapiens, SK-HEP1, SK-HEP-1 reporter assay, class symbols.
[2] abbreviates: Homo sapiens, NCI-H226, 96 h, class symbols.
The mark [3] stands for this setting: Homo sapiens, SK-HEP1, SK-HEP-1 reporter assay, n.d. = value not detectable below threshold given in parentheses, ND = not determinable within the entire range.
Where [4] appears, read: Homo sapiens, SW-620, 96 h, ND = not determinable within the entire range.
Setting [5] is: Homo sapiens, NCI-H226, 96 h, n.d. = value not detectable below threshold given in parentheses.

Molecules are shown by their SMILES. Where a name gives a salt, the structure may show the parent alone.

As a reminder, the IC50 is the concentration at which inhibition is half-maximal. Take `C[C@H](NC(=O)c1ccc2c(c1)c1nn(C)nc1n2-c1ccc(C(F)(F)F)cc1)c1ccncc1` [Example C185, 2-methyl-N-[(1S)-1-(pyridin-4-yl)ethyl]-4-[4-(trifluoromethyl)phenyl]-2H,4H-[1,2,3]triazolo[4,5-b]indole-7-carboxamide]: the concentration for half-maximal inhibition (IC50) was 10 to 100 nM in the test with YAP-TEAD interaction (setting [1]); 1 to 100 nM with NCI-H226 cells (setting [2]); over 3000 nM in the test on SW620 Yap KO cells (Homo sapiens, SW-620, 96 h).
For `C[C@H](CO)NC(=O)c1ccc2c(c1)c1cn(C)nc1n2-c1ccc(C(F)F)cc1` [Example C247, 8-[4-(difluoromethyl)phenyl]-N-[(2R)-1-hydroxypropan-2-yl]-2-methyl-2H,8H-pyrazolo[3,4-b]indole-5-carboxamide], in that order: 10 to 100 nM, 1 to 100 nM and over 30000 nM.
`Cn1cc2c3cc(C(=O)NC(CO)c4ccccn4)ccc3n(-c3ccc(C(F)(F)F)nc3)c2n1` (single isomer, unassigned) [Example C124]: the 50% inhibitory concentration (IC50) with YAP-TEAD interaction (setting [3]) was over 30000 nM; with NCI-H226 cells (96 h, class symbols) it was 1000 to 10000 nM; in the test on SW620 Yap KO cells (96 h, ND = not determinable within the entire range) it was over 30000 nM.
Consider `Cn1ccc(C(CO)NC(=O)c2ccc3c(c2)c2cn(C)nc2n3-c2ccc(C(F)(F)F)cc2)n1` (centres unmarked) [Example C260, N-[2-hydroxy-1-(1-methyl-1H-pyrazol-3-yl)ethyl]-2-methyl-8-[4-(trifluoromethyl)phenyl]-2H,8H-pyrazolo[3,4-b]indole-5-carboxamide], for which the 50% inhibitory concentration (IC50) is 10 to 100 nM with YAP-TEAD interaction (setting [1]); 1 to 100 nM in the test with NCI-H226 cells (setting [2]); over 30000 nM in the test with SW620 Yap KO cells (Homo sapiens, SW-620, 96 h).
As to `Cn1cnc2c1c1cc(C(=O)N[C@@](C)(CO)c3ccccn3)ccc1n2-c1ccc(C(F)(F)F)cc1` [Example C12, N-[(2R)-1-hydroxy-2-(pyridin-2-yl)propan-2-yl]-1-methyl-4-[4-(trifluoromethyl)phenyl]-1H,4H-imidazo [4,5-b]indole-7-carboxamide], the half-inhibitory concentration (IC50) in the test with YAP-TEAD interaction (setting [1]) was 1 to 10 nM; in the test on NCI-H226 cells (setting [2]) it was 1 to 100 nM; in the test with SW620 Yap KO cells (setting [4]), over 3000 nM.
With `Cn1cc2c3cc(C(=O)NC(CCO)c4ccccn4)ccc3n(-c3ccc(C(F)(F)F)cc3)c2n1` (centres unmarked) [Example C225, N-[3-hydroxy-1-(pyridin-2-yl)propyl]-2-methyl-8-[4-(trifluoromethyl)phenyl]-2H,8H-pyrazolo[3,4-b]indole-5-carboxamide], the IC50 in the test with YAP-TEAD interaction (setting [1]) is 10 to 100 nM; in the test with NCI-H226 cells (setting [2]), 1 to 100 nM; in the test on SW620 Yap KO cells (Homo sapiens, SW-620, 96 h) it was over 30000 nM.
Consider `Cn1cc2c3cc(C(=O)NC(CO)c4ncc[nH]4)ccc3n(-c3ccc(C(F)(F)F)cc3)c2n1` (centres unmarked) [Example C273, N-[2-hydroxy-1-(1H-imidazol-2-yl)ethyl]-2-methyl-8-[4-(trifluoromethyl)phenyl]-2H,8H-pyrazolo[3,4-b]indole-5-carboxamide trifluoroacetate], for which the IC50 with YAP-TEAD interaction (setting [1]) lay within 10 to 100 nM; in the test with NCI-H226 cells (setting [2]), 1 to 100 nM.
Turning to `C[C@H](NC(=O)c1ccc2c(c1)c1nn(C)nc1n2-c1ccc(C(F)(F)F)cc1)c1cccc(N)n1` [Example C183, N-[(1S)-1-(6-aminopyridin-2-yl)ethyl]-2-methyl-4-[4-(trifluoromethyl)phenyl]-2H,4H-[1,2,3]triazolo[4,5-b]indole-7-carboxamide], the IC50 in the test on YAP-TEAD interaction (setting [1]) was 100 to 10000 nM; in the test with NCI-H226 cells (setting [2]) it was 1 to 100 nM; in the test with SW620 Yap KO cells (Homo sapiens, SW-620, 96 h) it was over 3000 nM.
`CC[C@@H](CO)NC(=O)c1ccc2c(c1)c1c(C)snc1n2-c1ccc(C(F)(F)F)cc1` [Example C83, N-[(2S)-1-hydroxybutan-2-yl]-3-methyl-8-[4-(trifluoromethyl)phenyl]-8H-[1,2]thiazolo [3,4-b]indole-5-carboxamide]: the IC50 in the test on YAP-TEAD interaction (setting [1]) was 10 to 100 nM; in the test on NCI-H226 cells (setting [2]) it was 1 to 100 nM; in the test on SW620 Yap KO cells (setting [4]), over 30000 nM.
As to `Cn1cc2c3cc(NS(C)(=O)=O)ccc3n(-c3ccc(C(F)(F)F)cc3)c2n1` [Example C6, N-{2-methyl-8-[4-(trifluoromethyl)phenyl]-2H,8H-pyrazolo[3,4-b]indol-5-yl}methanesulfonamide], the values for the IC50 with YAP-TEAD interaction (setting [1]), in the test with NCI-H226 cells (setting [2]) and in the test with SW620 Yap KO cells (setting [4]) were 1 to 10 nM, 1 to 100 nM and over 9500 nM, respectively.
Turning to `CNC(=O)c1ccc2c(c1)c1cn(C)nc1n2-c1ccc(C(F)(F)F)cn1` [Example C147, N,2-dimethyl-8-[5-(trifluoromethyl)pyridin-2-yl]-2H,8H-pyrazolo[3,4-b]indole-5-carboxamide], the figures for the IC50 in the test with YAP-TEAD interaction (setting [1]), in the test on NCI-H226 cells (setting [2]) and in the test on SW620 Yap KO cells (setting [4]) were 10 to 100 nM, 1 to 100 nM and over 30000 nM, respectively.
`Cc1snc2c1c1cc(C(=O)NCc3ncccn3)ccc1n2-c1ccc(C(F)(F)F)cc1` [Example C63, 3-methyl-N-[(pyrimidin-2-yl)methyl]-8-[4-(trifluoromethyl)phenyl]-8H-[1,2]thiazolo[3,4-b]indole-5-carboxamide]: the IC50 with YAP-TEAD interaction (setting [1]) lay in the range of 1 to 10 nM; with NCI-H226 cells (setting [2]), 1 to 100 nM.
The corresponding values for `Cn1cc2c3cc(C(=O)N[C@H](CCO)c4ccccn4)ccc3n(-c3ccc(C(F)(F)F)cc3)c2n1` (single isomer, unassigned) [Example C239] are 100 to 10000 nM and 100 to 1000 nM.
Take `Cn1cc2c3cc(NS(=O)(=O)Cc4ccccn4)ccc3n(-c3ccc(C(F)(F)F)cc3)c2n1` [Example C130, N-{2-methyl-8-[4-(trifluoromethyl)phenyl]-2H,8H-pyrazolo[3,4-b]indol-5-yl}-1-(pyridin-2-yl)methanesulfonamide]: the half-maximal inhibitory concentration (IC50) in the test with YAP-TEAD interaction (setting [3]) was over 30000 nM; with NCI-H226 cells (setting [5]), over 3 nM.
`Cn1cc2c3cc(C(=O)N=[S@](=O)(CCO)Cc4cccnc4)ccc3n(-c3ccc(C(F)(F)F)cc3)c2n1` (single isomer, unassigned) [Example C188]: the 50% inhibitory concentration (IC50) is over 9500 nM with YAP-TEAD interaction (Homo sapiens, SK-HEP1, SK-HEP-1 reporter assay, n.d. = value not detectable below threshold given in parentheses) and 1 to 100 nM in the test with NCI-H226 cells (setting [2]).
With `Cn1cc2c3cc(C(=O)O)cnc3n(-c3ccc(C(F)(F)F)cc3)c2n1` [Example 37, 4-methyl-7-[4-(trifluoromethyl)phenyl]-4,5,7,9-tetraazatricyclo[6.4.0.0^2,6]dodeca-1(8),2,5,9,11-pentaene-11-carboxylic acid], the half-inhibitory concentration (IC50) in the test with YAP-TEAD interaction (SK-HEP-1 reporter assay, class symbols) was 1 to 10 nM; in the test on NCI-H226 cells (96 h, class symbols), over 10000 nM.
With `Cn1nc2c3cc(C(=O)NC(CO)c4cscn4)ccc3n(-c3ccc(C(F)(F)F)cc3)c2n1` (centres unmarked) [Example C276, N-[2-hydroxy-1-(1,3-thiazol-4-yl)ethyl]-2-methyl-4-[4-(trifluoromethyl)phenyl]-2H,4H-[1,2,3]triazolo[4,5-b]indole-7-carboxamide], the IC50 in the test on YAP-TEAD interaction (setting [1]) lay in the range of 10 to 100 nM; in the test on NCI-H226 cells (setting [2]), 1 to 100 nM.
As to `Cn1cc2c3cc(NS(=O)(=O)Cc4cccnc4)ccc3n(-c3ccc(C(F)(F)F)cc3)c2n1` [Example C129, N-{2-methyl-8-[4-(trifluoromethyl)phenyl]-2H,8H-pyrazolo[3,4-b]indol-5-yl}-1-(pyridin-3-yl)methanesulfonamide], the half-maximal inhibitory concentration (IC50) is over 10000 nM in the test with YAP-TEAD interaction (setting [3]) and 1000 to 10000 nM in the test on NCI-H226 cells (setting [2]).
For `Cn1cc2c3cc(C(=O)N4CC[C@H](O)C4)ccc3n(-c3ccc(C(F)(F)F)cn3)c2n1` [Example C151, (3S)-1-{2-methyl-8-[5-(trifluoromethyl)pyridin-2-yl]-2H,8H-pyrazolo[3,4-b]indole-5-carbonyl}pyrrolidin-3-ol], in that order: over 10000 nM and 100 to 1000 nM.
With `Cn1cc2c3cc(NS(=O)(=O)Cc4ccncc4)ccc3n(-c3ccc(C(F)(F)F)cc3)c2n1` [Example C128, N-{2-methyl-8-[4-(trifluoromethyl)phenyl]-2H,8H-pyrazolo[3,4-b]indol-5-yl}-1-(pyridin-4-yl)methanesulfonamide], the IC50 is over 10000 nM in the test on YAP-TEAD interaction (setting [3]) and over 3 nM in the test on NCI-H226 cells (setting [5]).

These data come from patent US20240270748A1 (Merck Patent GmbH, priority 2021, published 2024).
